Measurements reported in patent publication US4510136A (priority 1983, dated 1985).
Where a name gives a salt, the structure may show the parent alone.

Key:
Assay type in all cases: in vivo
[1] = tested on: Puccinia recondita var. tritici; assay: Wheat leaf rust control on sprayed wheat seedlings (Example 79); details: 100 ppm spray, day before inoculation; for pest or weed control at 100 ppm: Puccinia recondita, 168 h
Description: The compounds of this invention were dissolved in acetone in an amount equal to 6% of the final volume and then suspended at a concentration of 100 ppm in purified water containing 250 ppm of the surfactant TREM 014 (polyhydric alcohol esters). These suspensions were sprayed to the point of run-off on wheat seedlings. The following day, the plants were inoculated with a spore suspension of Puccinia recondita var. tritici, causal agent of wheat leaf rust, and incubated in a saturated humidity chamber at 20° for 24 hours and then in a growth room for an additional 7 days, when disease ratings were made. Treated plants from successful treatments had few or no rust pustules while the untreated plants had numerous rust pustules on each leaf.

Erysiphe cichoracearum = assay: Cucumber powdery mildew control on sprayed cucumber seedlings (Example 80); details: 100 ppm spray, day before inoculation; for pest or weed control at 100 ppm: Golovinomyces cichoracearum, 168 h
Description: These suspensions were sprayed to the point of run-off, on cucumber seedlings. The following day, the plants were inoculated with a spore suspension of the fungus Erysiphe cichoracearum, causal agent of cucumber powdery mildew, and incubated in a growth room for 7 days. Disease ratings were then made. Treated plants from successful treatments had little or no powdery mildew in contrast to untreated plants which were covered with powdery mildew. Phytotoxicity in the form of growth reduction or hormonal effects was observed on some of the plants in association with disease control.

Helminthosporium maydis = assay: Southern corn leaf blight control on sprayed corn seedlings (Example 83); details: 100 ppm spray, day before inoculation; for pest or weed control at 100 ppm: Bipolaris maydis, 192 h
Description: The compounds of the previous examples were again dissolved in acetone in an amount equal to 6% of the final volume and then suspended at a concentration of 100 ppm in purified water containing 250 ppm of the surfactant TREM 014 (polyhydric alcohol esters). These suspensions were sprayed to the point of run-off on corn seedlings. The following day, the plants were inoculated with a spore suspension of Helminthosporium maydis, causal agent of southern corn leaf blight, and incubated in a saturated humidity chamber at 20° for 24 hours and then in a growth room for an additional 7 days, when disease ratings were made. Treated plants from successful treatments had few or no lesions while the untreated plants had numerous lesions on each leaf. Phytotoxicity expressed as growth reduction was observed on some of the plants in association with disease control.

Cercospora arachidicola = assay: Peanut early leafspot control on sprayed peanut seedlings (Example 84); details: 100 ppm spray, day before inoculation; for pest or weed control at 100 ppm: Mycosphaerella arachidis, 360 h, read-out: % Control Peanut Easly Leafspot
Description: These suspensions were sprayed to the point of run-off on peanut seedlings. The following day, the plants were inoculated with a spore suspension of Cercospora arachidicola, causal agent of peanut early leafspot, and incubated in a saturated humidity chamber at 27° for 24 hours and then in a growth room for an additional 14 days, when disease ratings were made. Treated plants from successful treatments had few or no leafspots while the untreated plants had numerous leafspots.

Rhizoctonia solani = assay: Rice sheath blight control on sprayed rice seedlings (Example 87); details: 100 ppm spray, day before inoculation; for pest or weed control at 100 ppm: Rhizoctonia solani, 168 h
Description: The compounds of the previous examples were again dissolved in acetone in an amount equal to 6% of the final volume and then suspended at a concentration of 100 ppm in purified water containing 250 ppm of the surfactant TREM 014 (polyhydric alcohol esters). This suspension was sprayed to the point of run-off on rice seedlings. The following day, the plants were inoculated with a mixture of bran and the mycelium of Rhizoctonia solani, causal agent of sheath blight of rice, and incubated in a growth room for 7 days. Disease ratings were then made. Treated plants from successful treatments had little sheath blight in contrast to untreated plants which were covered with sheath blight.

Pyricularia oryzae = assay: whole plant or invertebrate; details: for % Control of Rice Blast: 100 ppm spray, day before inoculation; for pest or weed control at 100 ppm: Pyricularia oryzae, 168 h, read-out: % Control of Rice Blast, 100 ppm spray, day before inoculation
Phytophthora infestans = assay: whole plant or invertebrate; details: for % Control of Tomato Late Blight: 100 ppm spray, day before inoculation; for pest or weed control at 100 ppm: Phytophthora infestans, in Solanum lycopersicum, 168 h, read-out: % Control of Tomato Late Blight, 100 ppm spray, day before inoculation
Venturia inaequalis = assay: Apple scab control on sprayed apple seedlings (Example 82); details: 100 ppm spray, day before inoculation; for pest or weed control at 100 ppm: Venturia inaequalis
Description: These suspensions were sprayed to the point of run-off on apple seedlings. The following day, the plants were inoculated with a spore suspension of the fungus Venturia inaequalis, causal agent of apple scab, and incubated in a saturated humidity chamber at 20° for 24 hours and then in a growth room for an additional 10-12 days. Treated plants from successful treatments had fewer apple scab lesions when compared to untreated plants which were covered with scab lesions. Phytotoxicity expressed as growth reduction was observed on some of the plants in association with disease control.

Compound	% Control Wheat Rust [1]	% Control Cucumber Powdery Mildew (Erysiphe cichoracearum)	% Control of Southern Corn Leaf Blight (Helminthosporium maydis)	% Control Peanut Easly Leafspot (Cercospora arachidicola)	% Control of Rice Sheath Blight (Rhizoctonia solani)	% Control of Rice Blast (Pyricularia oryzae)	% Control of Tomato Late Blight (Phytophthora infestans)	% Control Apple Scab (Venturia inaequalis)	pest or weed control at 100 ppm [1]	pest or weed control at 100 ppm (Erysiphe cichoracearum)	pest or weed control at 100 ppm (Venturia inaequalis)	pest or weed control at 100 ppm (Helminthosporium maydis)	pest or weed control at 100 ppm (Cercospora arachidicola)	pest or weed control at 100 ppm (Rhizoctonia solani)	pest or weed control at 100 ppm (Phytophthora infestans)	pest or weed control at 100 ppm (Pyricularia oryzae)
2:1 complex of [bis(4-Fluorophenyl)]methyl(1H-1,2,4-triazol-1-ylmethyl)silane and Curpic Chloride	100%	100%	0%	100%	0%	100%	40%									
C[Si](C)(Cn1cncn1)c1ccc(-c2ccccc2)cc1.[Cl][Cu] [1:1 complex of (1,1'-Biphenyl-4-yl)dimethyl(1H-1,2,4-triazol-1-ylmethyl)silane and Cuprous Chloride]	0%	100%	100%	100%	90%	100%	100%	100%								
C[Si](Cn1cncn1)(c1ccc(Cl)cc1)c1ccccc1Cl (stereo not drawn) [2-Chlorophenyl(4-chlorophenyl)methyl(1H-1,2,4-triazol-1-ylmethyl)silane]									100%	100%	90%	60%	90%	70%	0%	
C[Si](Cn1cncn1)(c1ccccc1)c1ccccc1Cl (stereo not drawn) [2-Chlorophenyl(methyl)phenyl(1H-1,2,4-triazol-1-ylmethyl)silane]									80%	100%	90%	100%	100%	90%	0%	100%
C[Si](Cn1cncn1)(c1ccccc1)c1ccc(Br)cc1 (stereo not drawn) [4-Bromophenyl(methyl)phenyl(1H-1,2,4-triazol-1-ylmethyl)silane]									0%	100%	100%	80%	100%	90%	0%	80%
C[Si](C)(Cn1cncn1)c1ccccc1-c1ccccc1 [(1,1'-Biphenyl-2-yl)dimethyl(1H-1,2,4-triazol-1-ylmethyl)silane]									0%	90%	60%	90%	100%	0%	50%	90%
C[Si](C)(Cn1cncn1)c1cccc(-c2ccccc2)c1 [(1,1'-Biphenyl-3-yl)dimethyl(1H-1,2,4-triazol-1-ylmethyl)silane]									80%	0%	50%	100%	90%	0%	0%	0%
C[Si](Cn1cncn1)(c1ccc(F)cc1)c1ccc(-c2ccccc2)cc1 (stereo not drawn) [(1,1'-Biphenyl-4-yl)(4-fluorophenyl)methyl(1H-1,2,4-triazol-1-ylmethyl)silane]									100%	100%	100%	80%	100%	0%	0%	
C[Si](C)(Cn1cncn1)c1ccc(-c2ccccc2)cc1.[Cl][Cu][Cl] [(1,1'-Biphenyl-4-yl)dimethyl(1H-1,2,4-triazol-1-ylmethyl)silane, 1:1 complex with cupric chloride]	100%	100%	80%	100%	0%	100%	90%	100%								
C[Si](C)(Cn1cncn1)c1ccc(-c2ccccc2)cc1.O=S(=O)([O-])[O-].[Mn+2] [(1,1'-Biphenyl-4-yl)dimethyl(1H-1,2,4-triazol-1-ylmethyl)silane, 1:1 complex with manganous sulfate]	90%	90%	100%	100%	0%	0%	0%	100%								
C[Si](C)(Cn1cncn1)c1ccc(-c2ccccc2)cc1 [(1,1'-Biphenyl-4-yl)dimethyl(1H--1,2,4-triazol-1-ylmethyl)si] [4-Dodecylbenzenesulfonate Salt of (1,1'-Biphenyl-4-yl)dimethyl(1H-1,2,4-triazol-1-ylmethyl)silane]			100%													
Cc1ncnn1C[Si](C)(C)c1ccc(-c2ccccc2)cc1 [(1,1'-Biphenyl-4-yl)dimethyl(5-methyl-1H-1,2,4-triazol-1-ylmethyl)silane]									100%	100%	100%	80%	100%	0%	80%	0%
CC(C)(C)O[Si](Cn1cncn1)(c1ccc(F)cc1)c1ccc(F)cc1 [(1,1-Dimethylethoxy)[bis(4-fluorophenyl)](1H-1,2,4-triazol-1-ylmethyl)silane]										100%		0%				
CC(C)O[Si](C)(Cn1cncn1)c1ccc(F)cc1 (stereo not drawn) [(4-Fluorophenyl)methyl(2-propoxy)(1H-1,2,4-triazol-1-ylmethyl)silane]										100%		0%				
CC(C)O[Si](Cn1cncn1)(OC(C)C)c1ccccc1 [Phenylbis(2-propoxy)(1H-1,2,4-triazol-1-ylmethyl)silane]									0%	100%	0%	0%	0%	0%	0%	
C[Si](Cn1cncn1)(c1ccc(F)cc1)c1ccc(F)cc1.[Cl][Cu] [[bis(4-Fluorophenyl)]methyl(1H-1,2,4-triazol-1-ylmethyl)silane, 1:1 complex with cuprous chloride]	90%	100%	0%	100%	90%	90%	0%									
CC(n1cncn1)[Si](C)(c1ccc(F)cc1)c1ccc(F)cc1 (stereo not drawn) [bis(4-Fluorophenyl)methyl[1-(1H-1,2,4-triazol-1-yl)ethyl]silane]									100%	100%	100%		100%	80%	0%	0%
